Experimental data published in US12383566B2, “Inhibition of SLC transporter activity or expression to attenuate anthracycline-induced cardiotoxicity” (Northwestern University, priority 2021, dated 2025).

Tests used:
hiPSC-CMs [1] = experiment: Prestwick drug library screening for cardioprotection against DOX (10 μM, 72 h) by cell viability; format: cell-based, human; conditions: drug 3 μM (24 h pre-treatment + co-treatment)
Method: (§1) FIGS. 5A, 5B, 5C, 5D, 5E, 5F, and 5G. […] All drugs were used at 3 μM. […] LD50, median lethal dose. […] F, Ventricular fractional shortening at baseline, 1-, 2-, 3-weeks post treatment. […] For (D and G) log-logistic non-linear regression model was used to estimate the value of the four parameters, and t-statistic was used to test for significant difference in LD50 between different groups.
(§2) Next, we sought to expand our screening for novel cardioprotectants by testing the cardioprotective role of the Prestwick drug library that includes 1219 drugs.
(§3) 384-well plate-based cell viability, caspase 3/7 activity assays. […] Luminescence was measured using a VarioSkan Lux Multi-Mode Reader (Thermo Scientific) with an integration time of 0.25 sec. Apoptosis was measured using Caspase 3/7-Glo (Promega) respectively according to manufacturer's instructions with an integration time of 1 sec. 10 μM staurosporine (MedChemExpress) was used as a positive control. Data were analyzed using Prism 7.0 software (GraphPad) using standard dose-response guidelines.

hiPSC-CMs [2] = experiment: Validation of top FDA-approved cardioprotectants against 10 log-doses of doxorubicin (viability LD50); format: cell-based, human; conditions: drug 3 μM, 72 h
Method: as §1, §2, §3

Structure (SMILES)	rank among cardioprotective drugs in Prestwick library screening (hiPSC-CMs [1])	LD50 of doxorubicin with cardioprotective drug co-treatment (hiPSC-CMs [2]) [µM]
Clc1ccc(CCC(Cn2ccnc2)Sc2c(Cl)cccc2Cl)cc1 (centres unmarked) [butoconazole, 1-[4-(4-chlorophenyl)-2-(2,6-dichlorophenyl)sulfanylbutyl]imidazole]	top ten significant cardio-protectants	4.4
CNCCC(Oc1ccc(C(F)(F)F)cc1)c1ccccc1 (centres unmarked) [fluoxetine]	top ten significant cardio-protectants	
O=C1[C@H]2CCCC[C@H]2C(=O)N1CCCCN1CCN(c2nsc3ccccc23)CC1 [perospirone]	top ten significant cardio-protectants	
CC(C)c1cccc(C(C)C)c1O [propofol, 2,6-di(propan-2-yl)phenol]	top ten significant cardio-protectants	4.77
CCCCNc1ccc(C(=O)OCCN(C)C)cc1 [tetracaine, 2-(dimethylamino)ethyl 4-(butylamino)benzoate]	top ten significant cardio-protectants	4.65
